Test results reported in PMC4503431, “Impaired Itching Perception in Murine Models of Cholestasis Is Supported by Dysregulation of GPBAR1 Signaling” (PLoS ONE, 2015).

Tests used:
GPBAR1 (TGR5) = molecular target: T1, GPBAR1 (TGR5) (Homo sapiens, UniProt Q8TDU6); assay: CRE-luciferase transactivation in HEK293T cells transfected with human GPBAR1; format: cell-based
T1 construct: pCMVSPORT6-human GPBAR1
T1 sequence (Q8TDU6 1-330): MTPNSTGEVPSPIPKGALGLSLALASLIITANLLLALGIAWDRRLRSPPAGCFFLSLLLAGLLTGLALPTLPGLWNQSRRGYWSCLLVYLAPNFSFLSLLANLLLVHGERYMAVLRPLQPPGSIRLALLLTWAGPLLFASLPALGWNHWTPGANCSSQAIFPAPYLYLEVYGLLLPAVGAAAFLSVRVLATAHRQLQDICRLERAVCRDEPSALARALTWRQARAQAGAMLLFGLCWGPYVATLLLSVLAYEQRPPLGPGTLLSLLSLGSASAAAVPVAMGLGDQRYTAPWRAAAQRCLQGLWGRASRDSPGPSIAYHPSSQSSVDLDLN

[1] = molecular target: T2, farnesoid X receptor (FXR) (Homo sapiens, UniProt Q96RI1); assay: FXRE (hsp27 IR1) luciferase transactivation in HepG2 cells transfected with FXR and RXR; format: cell-based
T2 construct: gene NR1H4; pSG5-FXR; with RXR (pSG5-RXR cotransfected)
T2 sequence (Q96RI1 1-486): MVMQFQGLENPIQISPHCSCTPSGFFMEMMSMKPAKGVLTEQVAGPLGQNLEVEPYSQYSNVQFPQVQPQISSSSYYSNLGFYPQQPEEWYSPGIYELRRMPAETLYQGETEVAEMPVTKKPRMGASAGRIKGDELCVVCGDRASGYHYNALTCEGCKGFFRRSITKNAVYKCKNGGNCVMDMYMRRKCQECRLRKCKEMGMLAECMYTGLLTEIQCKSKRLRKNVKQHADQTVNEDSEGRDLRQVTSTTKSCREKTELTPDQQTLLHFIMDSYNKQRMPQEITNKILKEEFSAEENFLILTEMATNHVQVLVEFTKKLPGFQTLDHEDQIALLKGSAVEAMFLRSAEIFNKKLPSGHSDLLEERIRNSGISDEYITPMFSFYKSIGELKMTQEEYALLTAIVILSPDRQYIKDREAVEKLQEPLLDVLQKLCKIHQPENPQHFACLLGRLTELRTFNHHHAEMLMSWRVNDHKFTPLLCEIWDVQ
T2 sequence (P19793 1-462 partner): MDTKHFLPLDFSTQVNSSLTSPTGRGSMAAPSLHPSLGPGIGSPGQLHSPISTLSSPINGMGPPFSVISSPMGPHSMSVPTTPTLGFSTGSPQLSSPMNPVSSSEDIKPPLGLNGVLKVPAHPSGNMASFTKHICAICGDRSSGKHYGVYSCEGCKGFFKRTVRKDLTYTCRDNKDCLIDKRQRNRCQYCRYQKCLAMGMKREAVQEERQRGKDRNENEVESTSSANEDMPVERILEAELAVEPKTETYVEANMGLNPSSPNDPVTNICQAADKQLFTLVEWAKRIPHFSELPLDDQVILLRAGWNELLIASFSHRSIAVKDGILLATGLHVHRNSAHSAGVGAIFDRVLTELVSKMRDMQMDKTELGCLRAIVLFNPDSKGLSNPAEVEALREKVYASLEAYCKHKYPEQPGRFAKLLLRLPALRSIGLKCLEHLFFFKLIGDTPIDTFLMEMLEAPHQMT

CC[C@H]1[C@@H](O)[C@@H]2[C@H](CC[C@]3(C)[C@@H]([C@H](C)CCO)CC[C@@H]23)[C@@]2(C)CC[C@@H](O)C[C@@H]12 [BAR502, 6α-ethyl-3α, 7α-dihydroxy-24-nor-5β-cholan-23-ol]
EC50 (GPBAR1 (TGR5)): 0.4 ± 0.1 µM
EC50 [1]: 2 ± 0.2 µM
